The text below walks through data of patent publication US20110286979A1, “CHEMOSENSITIZATION BY BI-FUNCTIONAL SMALL HAIRPIN RNA (bi-shRNA)” (GRADALIS, INC., priority 2010, published 2011).

What is called IC50 is the concentration needed to halve the response being measured.

In test [1] the test system is CCL-247 colorectal cancer cells. The experiment in a line: BrdU Cell Proliferation Assay, docetaxel dose response with/without shRNA plasmid electroporation. It is filed as cell-based, human. As to conditions: for IC50: Homo sapiens. The protocol: Docetaxel storage stock was made in 10 mM, with DMSO as solvent in a biological safety cabinet for sterility purposes. Docetaxel solution was stored in 4° C. fridge away from direct light. For each experiment, docetaxel storage solution was brought to room temperature to thaw, about 30 min before usage. A 5 uM working solution was made and further diluted 1:50. To 9.8 ml complete CCL-247 media, 0.2 ml 5 uM working solution was added so that 10 ul of the solution into final volume of 100 ul will make 10 nM. The 10 nM solution was serially diluted to make 5 nM, 2.5 nM, 1.25 nM, 0.625 nM, and 0.3124 nM.
The CCL-247 media comprises HyClone McCoy's 5A medium 500 ml, FBS 50 ml, and L-Glutamine 10 ml. Under the biological cabinet, the above solutions were mixed into McCoy's 5A medium 500 ml bottle. The mixture was poured at the top part of filter, a vacuum pump was turned on to filter the mixed medium through. The media was stored at 4° C. after use.
The % growth inhibition is calculated as: […]

The subject of a further test is SK-Mel-28 melanoma cells. The test is described as above. As to conditions: Homo sapiens.

Like-named read-outs stand apart in the source and are kept apart here.

Protocol for SK-Mel-28 melanoma cells: Cells are cultured and grown to sufficient amount for the studies. The shRNA plasmid transfection was performed by electroporation, in the dose of 50 ug/10 million cell. Finally the different ingredients were placed in 96-well plates (media, transfected cells with and without docetaxel, buffer) and incubated at 37° C. with 5% CO2. Growth inhibition was studied using the BrdU Cell Proliferation Assay kit at 24, 48, and 72 hrs.
The cell growth inhibition for each of treatment is calculated from direct OD reading. The % growth inhibition is calculated as:
% growth inhibition of control=ODtreated−ODtreatedNoBrdUcontrol/ODuntreated−ODuntreatedNoBrdUcontrol
wherein, ODtreated: OD reading from the shRNA plasmid and/or docetaxel treated reactant; ODtreatedNoBrdUcontrol: OD reading from the shRNA plasmid and/or docetaxel treated reactant, but without BrdU labeling; ODuntreated: OD reading from reactants without shRNA plasmid or docetaxel treatment; ODuntreatedNoBrdUcontrol: OD reading from reactants without shRNA plasmid or docetaxel treatment, and without BrdU labeling.
The % growth inhibition is calculated and plotted against treatment dose of docetaxel. From the plotted % growth inhibition IC50 is determined from curve for shRNA with/without docetaxel, as well as with docetaxel in different concentrations. IC50—half maximal inhibitory concentration, is a measure of the effectiveness of a compound (docetaxel for this study) in inhibiting biological function (cell growth for this study).

For `CC(=O)O[C@@]12CO[C@@H]1C[C@H](O)[C@@]1(C)C(=O)[C@H](O)C3=C(C)[C@@H](OC(=O)[C@H](O)[C@@H](NC(=O)OC(C)(C)C)c4ccccc4)C[C@@](O)([C@@H](OC(=O)c4ccccc4)[C@H]21)C3(C)C` [Docetaxel, docetaxel], the “cell growth compared to control” value in test [1] (CCL-247, docetaxel alone 1.25 nM, 48 hrs) was “about 70%”. For the same compound, the IC50 in test [1] (48 h, CCL-247, + pbi-shRNA^STMN1, 48 h, read-out: Docetaxel IC50 (mean ± SD)) worked out at 600 ± 400 pM; in test [1] (48 h, CCL-247, no ShRNA, 48 h, read-out: Docetaxel IC50 (mean ± SD)), 1800 ± 200 pM; in test [1] (72 h, CCL-247, + pbi-shRNA^STMN1, 72 h, read-out: Docetaxel IC50 (mean ± SD)), 600 ± 400 pM; in test [1] (72 h, CCL-247, + scrambled control, 72 h, read-out: Docetaxel IC50 (mean ± SD)) it was 1000 ± 600 pM; in test [1] (72 h, CCL-247, no ShRNA, 72 h, read-out: Docetaxel IC50 (mean ± SD)), 1000 ± 400 pM; in test [1] (CCL-247, with STMN1 knockdown (bi-shRNA^STMN1), BrdU, n=3, read-out: IC50 of docetaxel) it was 600 ± 400 pM. Besides, the IC50 in test [1] (CCL-247, without STMN1 knockdown, BrdU, n=3, read-out: IC50 of docetaxel) stood at 1800 ± 200 pM; in the test with SK-Mel-28 melanoma cells (SK-MEL-28, 48 h, read-out: Docetaxel IC50 (mean ± SD), SK-Mel-28, + pbi-shRNA^STMN1, 48 h), 100 pM; in the test on SK-Mel-28 melanoma cells (SK-MEL-28, 48 h, read-out: Docetaxel IC50 (mean ± SD), SK-Mel-28, + scrambled control, 48 h) it was 1000 ± 200 pM; with SK-Mel-28 melanoma cells (SK-MEL-28, 48 h, read-out: Docetaxel IC50 (mean ± SD), SK-Mel-28, no ShRNA, 48 h) it was 1700 ± 2000 pM; with SK-Mel-28 melanoma cells (SK-MEL-28, 72 h, read-out: Docetaxel IC50 (mean ± SD), SK-Mel-28, + pbi-shRNA^STMN1, 72 h), 200 ± 100 pM; in the test on SK-Mel-28 melanoma cells (SK-MEL-28, 72 h, read-out: Docetaxel IC50 (mean ± SD), SK-Mel-28, + scrambled control, 72 h), 900 ± 200 pM. Moreover, the IC50 came to 800 ± 200 pM in the test with SK-Mel-28 melanoma cells (SK-MEL-28, 72 h, read-out: Docetaxel IC50 (mean ± SD), SK-Mel-28, no ShRNA, 72 h); 100 pM with SK-Mel-28 melanoma cells (SK-MEL-28, read-out: IC50 of docetaxel, SK-Mel-28, with STMN1 knockdown (bi-shRNA^STMN1), BrdU, n=3); 1700 ± 200 pM in the test on SK-Mel-28 melanoma cells (SK-MEL-28, read-out: IC50 of docetaxel, SK-Mel-28, without STMN1 knockdown, BrdU, n=3).
